Key:
spleen B cells = assay: Radiation-induced apoptosis in isolated primary cells (Annexin V staining); format: cell-based, C57/BL6 mice; conditions: isolated C57/BL6 spleen cells, 0.5-1 Gy 137Cs γ-radiation, Annexin V/propidium iodide FACS 6-24 h after irradiation
Description: Determination of the Effect of Cds1 Inhibitory Compounds on Radiation-Induced Apoptosis in Isolated Primary Cells
Spleen cells were isolated from C57/BL6 mice as follows: Spleens were disrupted by grinding between two frosted glass slides, and cells were passed through a cell strainer. Erythrocytes were lysed by incubation in ammonium chloride solution followed by careful washing of cells in isotonic medium. The spleen cells were plated in 60 mm petri dishes at 5×10^6 cells/mL in RPMI medium containing 10% fetal calf serum and Cds1 inhibitor. […] Determination of apoptotic cells by Annexin V staining was performed using the Annexin V-FITC Apoptosis Detection Kit™ (Cat# PF032 Oncogene Research Products) according to the manufacturer's instructions. Briefly, 6-24 h after irradiation, the cells were washed with buffered isotonic salt solution and suspended at 1×10^6 cells/mL in binding buffer (10 mM Hepes pH 7.4, 150 mM NaCl, 2.5 mM CaCl2, 1 mM MgCl2, 4% bovine serum albumin) containing 80 ng/mL Annexin V labelled with FITC and 0.4 μg/mL anti-B220 antibody labelled with allophycocyanin. The cells were then pelleted and resuspended in binding buffer containing 0.6 μg/mL propidium iodide. The stained cells were analyzed on a FACS machine (Fluorescence Activated Cell Sorter™, Becton Dickinson). […] Fraction of non-apoptotic B-cells or total cells were determined separately based on staining with the B220 antibody mentioned above.

[1] = tested on: cells from an established tumor line; assay: Effect of Cds1 inhibitory compounds on tumor cell line clonogenic survival; format: cell-based; conditions: compound exposure 12 to 48 h with DNA-damaging second agent; compared to control group having no compound
Description: Typically 3 to 300 cells from an established tumor line were plated per cm^2 in petri dishes in the appropriate growth medium at 37° C. Cells were exposed to compounds dissolved in the growth medium from appropriately formulated stock solutions for times ranging from 12 to 48 h. During the course of compound exposure the cells were treated with a second agent with DNA-damaging capabilities, such as ionizing radiation or certain chemotherapeutic compounds. After this treatment regimen cells were incubated in growth medium containing no compound for a period of 7 to 14 days. At that time the cells were fixed with methanol and stained with 0.25% crystal violet. The number of colonies of cells exceeding 50 cells was determined for each treatment, and this number was used to calculate the effect of compounds on the survival of cells.

spleen cells = assay: Radiation-induced apoptosis in splenocytes in vivo; conditions: female C57/BL mice, 4Gy whole-animal γ-radiation, compared to animals dosed with vehicle alone
Description: Determination of the Effect of Cds1 Inhibitory Compounds on Radiation-Induced Apoptosis in Splenocytes in vivo
Female C57/BL mice, 6-8 weeks of age, were dosed by oral gavage or by injection with Cds1 inhibitory compound before and at regular intervals after radiation exposure. One to three hours after first compound dose, the animals were irradiated with γ-rays administered to the whole animal at a dose between 0.5 and 4 Gy. At times between 4 and 24 h after irradiation, the animals were sacrificed, and the tissues of interest were excised. […] Briefly, cells or tissues are fixed with formaldehyde and permeabilized with ethanol, and DNA ends are then labelled by attaching nucleotide derivatives such as BrdUTP using the enzyme terminal deoxynucleotidyl transferase. DNA ends can then be detected by incubating the cells or tissues with fluorescently-labelled antibodies reactive with BrdU. Quantification can be done by laser scanning cytometry, by visual microscopical examination or by FACS.

[2] = tested on: tumor cells from an established tumor cell line; assay: Effect of Cds1 inhibitors on tumor growth in murine xenograft models; format: in vivo; conditions: xenograft in athymic nu/nu mice, compound plus local irradiation
Description: Effect of Cds1 Inhibitors on Tumor Growth in Murine Xenograft Models
One×10^6 to ten×10^6 tumor cells from an established tumor cell line are injected in the hind limbs of athymic nu/nu mice. Tumors are allowed to grow until they reach 30-100 mm^3. At that time mice are randomized into different treatment groups, and compound or vehicle is administered by injection or oral gavage. […] After this treatment tumor growth rate is followed by measurement of tumor size twice weekly in three orthogonal directions, which is used to calculate the tumor volume.

Compound: NC(=O)c1ccc2[nH]c(-c3ccc(Sc4ccc(O)cc4)cc3)nc2c1 [Example 87, 2-[4-(4-Hydroxy-phenylsulfanyl)-phenyl]-1H-benzoimidazole-5-carboxylic acid amide]
- protection of spleen B cells from radiation-induced apoptosis (spleen B cells): protected spleen B cells from radiation-induced apoptosis

Compound: NC(=O)c1ccc2[nH]c(-c3ccc(Sc4ccc(Cl)cc4)nc3)nc2c1 [Example 42, 2-[6-(4-Chloro-phenylsulfanyl)-pyridin-3-yl]-1H-benzoimidazole-5-carboxylic acid amide]
- protection of spleen B cells from radiation-induced apoptosis (spleen B cells): protected spleen B cells from radiation-induced apoptosis

Compound: NC(=O)c1ccc2[nH]c(-c3ccc(Oc4ccc5c(c4)OCO5)cc3)nc2c1 [Example 84, 2-[4-(Benzo[1,3]dioxol-5-yloxy)-phenyl]-1H-benzoimidazole-5-carboxylic acid amide]
- protection of spleen B cells from radiation-induced apoptosis (spleen B cells): protected spleen B cells from radiation-induced apoptosis

Compound: NS(=O)(=O)c1ccc2[nH]c(-c3ccc(Oc4ccc(Cl)cc4)cc3)nc2c1 [Example 94, 2-[4-(4-Chloro-phenoxy)-phenyl]-1H-benzoimidazole-5-sulfonic acid amide]
- protection of spleen B cells from radiation-induced apoptosis (spleen B cells): protected spleen B cells from radiation-induced apoptosis

Compound: Cc1ccc(Sc2ccc(-c3nc4cc(C(N)=O)ccc4[nH]3)cn2)cc1 [Example 43, 2-[6-(4-Methyl-phenylsulfanyl)-pyridin-3-yl]-1H-benzoimidazole-5-carboxylic acid amide]
- protection of spleen B cells from radiation-induced apoptosis (spleen B cells): protected spleen B cells from radiation-induced apoptosis

Compound: NC(=O)c1ccc2[nH]c(-c3ccc(Oc4ccc5ccccc5c4)cc3)nc2c1 [Example 9, 2-[4-(2-Naphthyloxy)-phenyl]-1H-benzoimidazole-5-carboxylic acid amide]
- protection of spleen B cells from radiation-induced apoptosis (spleen B cells): protected spleen B cells from radiation-induced apoptosis

Compound: NC(=O)c1ccc2[nH]c(-c3ccc(Oc4ccc(Br)c(O)c4)cc3)nc2c1 [Example 88, 2-[4-(4-Bromo-3-hydroxy-phenoxy)-phenyl]-1H-benzoimidazole-5-carboxylic acid amide]
- protection of spleen B cells from radiation-induced apoptosis (spleen B cells): protected spleen B cells from radiation-induced apoptosis

Compound: NC(=O)c1ccc2[nH]c(-c3ccc(Oc4ccc(Br)cc4)cc3)nc2c1 [Example 11, 2-[4-(4-Bromo-phenoxy)-phenyl]-1H-benzoimidazole-5-carboxylic acid amide]
- protection of spleen B cells from radiation-induced apoptosis (spleen B cells): protected spleen B cells from radiation-induced apoptosis

Compound: NC(=O)c1ccc2[nH]c(-c3ccc(Oc4ccc(I)cc4)cc3)nc2c1 [Example 97, 2-[4-(4-Iodo-phenoxy)-phenyl]-1H-benzoimidazole-5-carboxylic acid amide]
- protection of spleen B cells from radiation-induced apoptosis (spleen B cells): protected spleen B cells from radiation-induced apoptosis

Compound: NC(=O)c1ccc2[nH]c(-c3ccc(Oc4ccc(Cl)cc4)cc3)nc2c1 [Example 1, 2-[4-(4-Chloro-phenoxy)-phenyl]-1H-benzoimidazole-5-carboxylic acid amide]
- number of colonies of cells (clonogenic survival) [1]: decrease in the number of colonies of cells
- protection of spleen cells from apoptosis (spleen cells): protection of spleen cells from apoptosis was observed
- tumor growth rate (tumor volume) [2]: inconclusive
- protection of spleen B cells from radiation-induced apoptosis (spleen B cells): protected spleen B cells from radiation-induced apoptosis

Compound: NC(=O)c1ccc2[nH]c(-c3ccc(Sc4ccc(F)c(Cl)c4)cc3)nc2c1 [Example 38, 2-[4-(3-Chloro-4-fluoro-phenylsulfanyl)-phenyl]-1H-benzoimidazole-5-carboxylic acid amide]
- protection of spleen B cells from radiation-induced apoptosis (spleen B cells): protected spleen B cells from radiation-induced apoptosis

From patent US7271261B2, “Substituted benzimidazoles and imidazo-[4,5]-pyridines” (Ortho-McNeil Pharmaceutical, Inc., priority 2001, dated 2007)
